Data as given in US20190203240A1, “METHODS FOR THE PRODUCTION OF RHAMNOSYLATED FLAVONOIDS” (Universitaet Hamburg, priority 2016, published 2019).
Several values for one entry are separate records, joined by “and”; a condition that tells them apart may be missing. Equal values may be shown once.

What was measured:
Type in all cases: cell-based, human
[1] = test system: hydrogen peroxide (DHR) in NHEK cells; test: Protection against UV-induced H2O2 stress in NHEK (DHR probe, flow cytometry); conditions: 180 mJ/cm^2 UVB (2839 mJ/cm^2 UVA), 100 μM
Procedure: Pre-incubated NHEK were incubated with the test compound for 24 h. Then the specific fluorescence probe for the measurement of hydrogen peroxide (DHR) or lipid peroxides (C11-fluor) was added and incubated for 45 min. Irradiation occurred with in H2O2 determination UVB at 180 mJ/cm^2 (+UVA at 2839 mJ/cm^2) or UVB at 240 mJ/cm^2 (+UVA at 3538 mJ/cm^2) in lipid peroxide, respectively, using a SOL500 Sun Simulator lamp. After irradiation the cells were post-incubated for 30 min before flow-cytometry analysis.

[2] = test system: matrix metallopeptidase 1 (MMP-1); test: MMP-1 release in UVA-irradiated NHDF (ELISA); conditions: NHDF irradiated 15 J/cm^2 UVA, 10^−7M
Procedure: (§1) Tests were performed with normal human dermal fibroblast cultures at the 8th passage. Cells were grown in DMEM supplemented with glutamine at 2 mM, penicillin at 50 U/mL and streptomycin (50 μg/mL) and 10% of fetal calf serum (FCS) at 37° C. in a 5% CO2 atmosphere.
Human fibroblasts were cultured for 24 hours before the cells were pre-incubated with the test or reference compounds (dexamethasone) for another 24 hours. The medium was replaced by the irradiation medium (EBSS, CaCl2) 0.264 g/L, MgClSO4 0.2 g/L) containing the test compounds) and cells were irradiated with UVA (15 J/cm^2). The irradiation medium was replaced by culture medium including again the test compounds incubated for 48 hours. After incubation the quantity of matrix metallopeptidase 1 (MMP-1) in the culture supernatant was measured using an ELISA kit.

PGE2 = test: Anti-inflammatory potential: secreted PGE2 in stimulated NHEK (ELISA); conditions: PMA - 1 μg/ml, reference at 10^−6M, cytokine type not given
Procedure: NHEK were pre-incubated for 24 h with the test compounds. The medium was replaced with the NHEK culture medium containing the inflammatory inducers (PMA or Poly I:C) and incubated for another 24 hours. Positive and negative controls ran in parallel. At the endpoint the culture supernatants were quantified of secreted IL-8, PGE2 and TNF-α, by means of ELISA.

VEGF = test: Stimulation of VEGF release in NHDF (ELISA); conditions: 72 hours, 1 μg/ml
Procedure: as §1
(§2) Fibroblasts were cultured for 24 hours before the cells were incubated with the test compounds for further 72 hours. After the incubation the culture supernatants were collected in order to measure the released quantities of procollagen I, VEGF, and fibronectin by means of ELISA. Reference test compounds were vitamin C (procollagen I), PMA (VEGF), and TGF-β (fibronectin).

procollagen I = test: Stimulation of procollagen I synthesis in NHDF (ELISA); conditions: 72 hours, 20 μg/ml
Procedure: as §1, §2

## COc1ccc(O)c(C(C)(C)C)c1 [BHA]
[1]
  H2O2 % irradiated control: 42%
  H2O2 (AU) Mean: 776 AU
  H2O2 Protection %: 70%
[1]; single values
  H2O2 (AU) (DHR GMFI): 740 AU and 834 AU and 754 AU

## C[C@@H]1C[C@H]2[C@@H]3CCC4=CC(=O)C=C[C@]4(C)[C@@]3(F)[C@@H](O)C[C@]2(C)[C@@]1(O)C(=O)CO [Dexamethasone, reference compound]
[2]
  MMP-1 % Irradiated control: 4%
  MMP-1 % Protection: 150%
  MMP-1 (ng/ml), single replicates: 2.5 ng/mL and 3.1 ng/mL and 3.2 ng/mL
  Mean MMP-1: 2.9 ng/mL
PGE2
  % stim. control: 92%
  Cytokine [pg/mL] Mean: 1437 pg/mL
PGE2; single values
  Cytokine: 1318 pg/mL and 1556 pg/mL

## CCCCCCCCCCCCCC(=O)O[C@@H]1[C@@H](C)[C@@]2(O)[C@@H](C=C(CO)C[C@]3(O)C(=O)C(C)=C[C@@H]23)[C@@H]2C(C)(C)[C@]12OC(C)=O [PMA]
VEGF
  Mean VEGF: 148 pg/mL
  VEGF % Control: 205%
  VEGF % Stimulation: 105%
VEGF; single values
  VEGF: 150 pg/mL and 143 pg/mL

## O=C1O[C@H]([C@@H](O)CO)C(O)=C1O [Vitamin C]
Procollagen I
  Procollagen I % Control: 316%
  Procollagen I % Stimulation: 216%
  Procollagen I Mean: 5272 ng/mL
Procollagen I; single values
  Procollagen I: 4739 ng/mL and 5854 ng/mL and 5225 ng/mL
